According to patent US20230321025A1, “METHOD AND COMPOUND FOR THE TREATMENT AND ELIMINATION OF AN IMMUNODEFICIENCY CONDITION” (priority 2020, published 2023):
≈ marks a conversion by molar mass, not a printed value. Where “and” joins values, the source holds several entries; their conditions need not be identical. Identical values can stand only once.

Tests used:
[1] = system: CEM-SS T-lymphoblastoid cells; assay: Drug-induced cytotoxicity in CEM-SS cells (tetrazolium reduction); conditions: for Toxicity testing, mean optical density: human, 6 days
Description: (§1) This assay was used to test the effectiveness of anti-HIV drug monotherapy in the established T-cell line CEM-SS infected with HIV-1RF, HIV-1IIIb, HIV-2ROD, or other cytolytic variants of HIV.
(§2) The drugs were solubilized in DMSO (dimethyl sulfoxide). […] CEM-SS cells were in logarithmic growth phase at the time of experimentation. Virus (HIV-1RF) stocks that past the necessary quality controls (killing effect on the type of cells used, limited variability, etc) were thawed and maintained on ice until required for addition.
(§3) Half-log serial dilutions of the antiviral agent or compound of the invention, H2K1001 (90i), were made in tissue culture media (RPMI 1640 without phenol red, supplemented with 10% heat inactivated fetal bovine serum, 1% L-Glutamine, 1% Pen/Strep and 50 ug/ml gentimycin). Virus, cell, drug and diluent (ethanol) controls were included for these tests. Virus was added after cells and drugs were mixed. Cell, drug, and virus containing cultures were incubated for six (6) days without additional feeding at which time the cultures were evaluated macroscopically and microscopically for cell toxicity, and the tetrazolium salt […] was added for quantitation by the colorimetric determination of formazan production (optical density).
(§4) Drug efficacy and cytotoxicity effects were determined six days after infection by the metabolic reduction of the tetrazolium salt XTT to its‘ formazan by surviving cells and was quantitated by determination of optical density at 450 nm with background subtraction at 650 nm (Tables 1-4).
(§5) The drug plate analysis reports from this assay are provided below in Tables 1-4. Calculated endpoints (EC50, etc.) were determined using Cho and Cho Median Effect Equation (Daids Virology Manual for HIV Laboratories, Compiled by The Division of Aids, National Institute of Allergy and Infectious Diseases, National Institutes of Health and Collaborating Investigators, Version January 1997).

[2] = system: monotropic HIV-1 (macbal); assay: Antiretroviral effect against monotropic/neurotropic HIV-1 in monocyte; assay type: cell-based; conditions: monotropic HIV-1 (macbal) in monocyte
HIV-1 = assay: Cell based time course study (mode of action); conditions: AZT and Indinavir as controls
Description: As such, the cell based time course study is such an important tool for the determination of viral kinetics and a mode of action for a drug. […] The dynamics of the interactions relate to the viral kinetic of infection and drug addition at various time points. In the various cell-based assays conducted on H2K1001 and/or 90I, it may be reasonably concluded that the compound works both early and late.

[3] = system: chronically HIV-1 infected H9 cells; assay: Co-cultivation study with chronically HIV-1 infected H9 cells; assay type: cell-based
Description: Viral pathogenesis in co-cultivation of infected cells with uninfected target cells presents a complex system with several target sites (attachment, fusion, transcription, processing, packaging and budding).
In many documented antiretroviral studies, the co-culture system is conventionally used to isolate the virus as well as to study cell-to-cell transmission or to determine if a given compound blocks cell fusion. H2K1001 and/or 90I may use aggressive intervention that could possibly be directed to at least one of a late phase, early fusion and/or attachment, and both early and late. However, judging from the variety of 90I results, early and late mode of action is consistent to this compound.

HIV-1 (RF) = assay: microbe, parasite or virus in culture; assay type: cell-based; conditions: for Efficacy testing, optical density of single wells: listed as R2K18001 (90I)
Description: as §1, §2, §3, §4, §5

With `O=C(OCCOCCOC(=O)c1ccccc1)c1ccccc1` [90I, diethylene glycol dibenzoate] the “Toxicity % CC” value ([1]; 0.01 ug/ml) was 100 % CC, the “Toxicity % CC” value ([1]; 0.03 ug/ml) was 103 % CC and the “Toxicity % CC” value ([1]; 0.1 ug/ml) was 104 % CC. For the same compound, the “Toxicity % CC” value ([1]; 0.3 ug/ml) was 100 % CC, the “Toxicity % CC” value ([1]; 1 ug/ml) was 100 % CC and the “Toxicity % CC” value ([1]; 3 ug/ml) was 99 % CC. The “Toxicity % CC” value ([1]; 10 ug/ml) was 93 % CC, the “Toxicity % CC” value ([1]; 33 ug/ml) was 94 % CC and the “Toxicity testing, optical density of single wells” value ([1]; 33 ug/ml, listed as H2K1001 (90I)) was 2.3330. The “Toxicity % CC” value ([1]; 100 ug/ml) was 106 % CC, the “50% inhibitory concentration, IC50 (drug induced toxicity)” value ([1]; CEM-SS, high test concentration 100 ug/ml) was “greater than 100 ug/ml” and the IC50 ([1]; Homo sapiens, CEM-SS) was > 100 µg/mL. The “Toxicity testing, mean optical density” value ([1]; 0.01 ug/ml) was 2.4317, the “Toxicity testing, mean optical density” value ([1]; 0.03 ug/ml) was 2.4969 and the “Toxicity testing, mean optical density” value ([1]; 0.1 ug/ml) was 2.5149. The “Toxicity testing, mean optical density” value ([1]; 0.3 ug/ml) was 2.4130, the “Toxicity testing, mean optical density” value ([1]; 1 ug/ml) was 2.4177 and the “Toxicity testing, mean optical density” value ([1]; 3 ug/ml) was 2.4007. For the same compound, the “Toxicity testing, mean optical density” value ([1]; 33 ug/ml) was 2.2879, the “Toxicity testing, mean optical density” value ([1]; 100 ug/ml) was 2.5604 and the EC50 ([2]; Human immunodeficiency virus 1, read-out: 50% effective concentration (EC50)) was 0.03 µg/mL (≈ 0.0954 µM). For the same compound, the TI [2] was “greater than 4000”, the “mode of action (time of inhibition)” value (HIV-1) was “inhibit HIV-1 both early and late” and the syncytium formation ([3]; co-cultivation) was “drastic drop”. The cell viability ([3]; co-cultivation, exponential cell growth) was “greater than ninety percent”, the “viral burden (p24) after treatment” value ([3]; co-cultivation, from 1.7 ×10^6 pg of p24) was 500 pg and the “progression of HIV-1 infection” value ([3]; compared to untreated controls) was “effectively blocked the progression of HIV-1 infection”. The “Efficacy % CC” value (HIV-1 (RF); 0.01 ug/ml) was 42 % CC, the “Efficacy testing, mean optical density” value (HIV-1 (RF); 0.01 ug/ml) was 1.0282 and the “Efficacy testing, optical density of single wells” value (shortened to “Efficacy testing, optical density”) (HIV-1 (RF); 0.01 ug/ml) was 0.9892 and 1.0238 and 1.0477. For the same compound, the “Efficacy % CC” value (HIV-1 (RF); 0.03 ug/ml) was 80 % CC, the “Efficacy testing, mean optical density” value (HIV-1 (RF); 0.03 ug/ml) was 1.9368 and the “Efficacy testing, optical density” value (HIV-1 (RF); 0.03 ug/ml) was 2.0839 and 1.6926 and 2.0343. For the same compound, the “Efficacy % CC” value (HIV-1 (RF); 0.1 ug/ml) was 87 % CC, the “Efficacy testing, mean optical density” value (HIV-1 (RF); 0.1 ug/ml) was 2.1073 and the “Efficacy testing, optical density” value (HIV-1 (RF); 0.1 ug/ml) was 2.2196 and 2.0140 and 2.0883. The “Efficacy % CC” value (HIV-1 (RF); 0.3 ug/ml) was 83 % CC, the “Efficacy testing, mean optical density” value (HIV-1 (RF); 0.3 ug/ml) was 2.0091 and the “Efficacy testing, optical density” value (HIV-1 (RF); 0.3 ug/ml) was 2.1099 and 1.8158 and 2.1016. The “Efficacy % CC” value (HIV-1 (RF); 1 ug/ml) was 84 % CC, the “Efficacy testing, mean optical density” value (HIV-1 (RF); 1 ug/ml) was 2.0264 and the “Efficacy testing, optical density” value (HIV-1 (RF); 1 ug/ml) was 2.2771 and 1.9186 and 1.8914. For the same compound, the “Efficacy % CC” value (HIV-1 (RF); 3 ug/ml) was 84 % CC, the “Efficacy testing, mean optical density” value (HIV-1 (RF); 3 ug/ml) was 2.0459 and the “Efficacy testing, optical density” value (HIV-1 (RF); 3 ug/ml) was 2.2499 and 1.9311 and 1.9576. For the same compound, the “Efficacy % CC” value (HIV-1 (RF); 10 ug/ml) was 82 % CC, the “Efficacy testing, mean optical density” value (HIV-1 (RF); 10 ug/ml) was 1.9797 and the “Efficacy testing, optical density” value (HIV-1 (RF); 10 ug/ml) was 2.0385 and 2.0038 and 1.8968. For the same compound, the “Efficacy % CC” value (HIV-1 (RF); 33 ug/ml) was 86 % CC, the “Efficacy testing, mean optical density” value (HIV-1 (RF); 33 ug/ml) was 2.0805 and the “Efficacy testing, optical density” value (HIV-1 (RF); 33 ug/ml) was 2.1945 and 1.9560 and 2.0909. The “Efficacy % CC” value (HIV-1 (RF); 100 ug/ml) was 88 % CC, the “Efficacy testing, mean optical density” value (HIV-1 (RF); 100 ug/ml) was 2.1221 and the “Efficacy testing, optical density” value (HIV-1 (RF); 100 ug/ml) was 2.2450 and 1.9588 and 2.1625. The “therapeutic index (TI=IC50/EC50)” value (HIV-1 (RF); HIV-1 RF in CEM-SS) was “greater than 5000” and the EC50 (HIV-1 (RF); Human immunodeficiency virus 1, CEM-SS, read-out: 50% effective concentration (EC50), RF laboratory strain of HIV-1 in CEM-SS) was ~0.02 µg/mL (≈ 0.0636 µM).
